This assay addresses FAS (Homo sapiens, UniProt P49327). The assay is described as follows: FAS assay (Assay #1: residual NADPH detection, or Assay #2: CoA detection with thio-reactive coumarin dye). Particulars: average IC50, each compound tested two or more times; FAS activity measured through one of the two assays. Format: biochemical. As for the experimental part:
FAS Activity was Measured Through One of the Two Following Assays.
Inhibition of FAS activity can be measured based on the detection of residual NADPH substrate after the FAS assay is quenched. This assay is run as a 10 μL endpoint assay in 384-well format, where the reaction contains 20 μM malonyl-CoA, 2 μM acetyl-CoA, 30 μM NADPH and 40 nM FAS in 50 mM sodium phosphate, pH 7.0. The assay is run by sequentially dispensing 5 ul of a malonyl-CoA solution, then enzyme solution (containing the acetyl-CoA, and NADPH) into a black, low volume assay plate (Greiner 784076) pre-dispensed with […] compound solutions in DMSO. The reaction is incubated at ambient temperature for 60 minutes, then quenched with 5 μL of a developing solution composed of 90 μM resazurin, 0.3 IU/ml diaphorase in 50 mM sodium phosphate, pH 7.0. The developed reaction is read on a Molecular Devices Analyst or Acquest (or equivalent) plate reader using a 530 nm excitation wavelength filter, a 580 nm emission filter, and 561 nm dichroic filter. The test compounds are prepared in neat DMSO at a concentration of 10 mM. For inhibition curves, compounds are diluted using a three fold serial dilution and tested at 11 concentrations (e.g. 25 μM-0.42 nM). Curves are analysed using ActivityBase and XLfit, and results are expressed as pIC50 values.
Inhibition of FAS can also be quantified based on the detection of the CoA products with a thio-reactive coumarin dye. This assay is run as a 10 μL endpoint assay in 384-well format, where the reaction contains 20 μM malonyl-CoA, 20 μM acetyl-CoA, 40 μM NADPH and 2 nM FAS in 50 mM sodium phosphate, pH 7.0, and 0.04% Tween-20. The assay is run by adding 5 μL enzyme solution to a black, low volume assay plate (Greiner 784076) pre-dispensed with 100 nl compound solutions in DMSO. After 30 minutes, 5 μL substrate is added, and the reaction incubated at ambient temperature for an additional 60 minutes. The reaction is then quenched with 10 μL of 6M guanidine-HCl containing 50 μM CPM (7-diethylamino-3-(4′-maleimidylphenyl)-4-methylcoumarin (CPM; thio-reactive dye), and incubated for 30 minutes. The plate is read on an Envision (PerkinElmer) or equivalent plate reader using a 380 nm excitation wavelength filter, and a 486 nm emission filter. Data fitting and compound preparations are done as described above.

FAS, sequence (P49327 whole entry): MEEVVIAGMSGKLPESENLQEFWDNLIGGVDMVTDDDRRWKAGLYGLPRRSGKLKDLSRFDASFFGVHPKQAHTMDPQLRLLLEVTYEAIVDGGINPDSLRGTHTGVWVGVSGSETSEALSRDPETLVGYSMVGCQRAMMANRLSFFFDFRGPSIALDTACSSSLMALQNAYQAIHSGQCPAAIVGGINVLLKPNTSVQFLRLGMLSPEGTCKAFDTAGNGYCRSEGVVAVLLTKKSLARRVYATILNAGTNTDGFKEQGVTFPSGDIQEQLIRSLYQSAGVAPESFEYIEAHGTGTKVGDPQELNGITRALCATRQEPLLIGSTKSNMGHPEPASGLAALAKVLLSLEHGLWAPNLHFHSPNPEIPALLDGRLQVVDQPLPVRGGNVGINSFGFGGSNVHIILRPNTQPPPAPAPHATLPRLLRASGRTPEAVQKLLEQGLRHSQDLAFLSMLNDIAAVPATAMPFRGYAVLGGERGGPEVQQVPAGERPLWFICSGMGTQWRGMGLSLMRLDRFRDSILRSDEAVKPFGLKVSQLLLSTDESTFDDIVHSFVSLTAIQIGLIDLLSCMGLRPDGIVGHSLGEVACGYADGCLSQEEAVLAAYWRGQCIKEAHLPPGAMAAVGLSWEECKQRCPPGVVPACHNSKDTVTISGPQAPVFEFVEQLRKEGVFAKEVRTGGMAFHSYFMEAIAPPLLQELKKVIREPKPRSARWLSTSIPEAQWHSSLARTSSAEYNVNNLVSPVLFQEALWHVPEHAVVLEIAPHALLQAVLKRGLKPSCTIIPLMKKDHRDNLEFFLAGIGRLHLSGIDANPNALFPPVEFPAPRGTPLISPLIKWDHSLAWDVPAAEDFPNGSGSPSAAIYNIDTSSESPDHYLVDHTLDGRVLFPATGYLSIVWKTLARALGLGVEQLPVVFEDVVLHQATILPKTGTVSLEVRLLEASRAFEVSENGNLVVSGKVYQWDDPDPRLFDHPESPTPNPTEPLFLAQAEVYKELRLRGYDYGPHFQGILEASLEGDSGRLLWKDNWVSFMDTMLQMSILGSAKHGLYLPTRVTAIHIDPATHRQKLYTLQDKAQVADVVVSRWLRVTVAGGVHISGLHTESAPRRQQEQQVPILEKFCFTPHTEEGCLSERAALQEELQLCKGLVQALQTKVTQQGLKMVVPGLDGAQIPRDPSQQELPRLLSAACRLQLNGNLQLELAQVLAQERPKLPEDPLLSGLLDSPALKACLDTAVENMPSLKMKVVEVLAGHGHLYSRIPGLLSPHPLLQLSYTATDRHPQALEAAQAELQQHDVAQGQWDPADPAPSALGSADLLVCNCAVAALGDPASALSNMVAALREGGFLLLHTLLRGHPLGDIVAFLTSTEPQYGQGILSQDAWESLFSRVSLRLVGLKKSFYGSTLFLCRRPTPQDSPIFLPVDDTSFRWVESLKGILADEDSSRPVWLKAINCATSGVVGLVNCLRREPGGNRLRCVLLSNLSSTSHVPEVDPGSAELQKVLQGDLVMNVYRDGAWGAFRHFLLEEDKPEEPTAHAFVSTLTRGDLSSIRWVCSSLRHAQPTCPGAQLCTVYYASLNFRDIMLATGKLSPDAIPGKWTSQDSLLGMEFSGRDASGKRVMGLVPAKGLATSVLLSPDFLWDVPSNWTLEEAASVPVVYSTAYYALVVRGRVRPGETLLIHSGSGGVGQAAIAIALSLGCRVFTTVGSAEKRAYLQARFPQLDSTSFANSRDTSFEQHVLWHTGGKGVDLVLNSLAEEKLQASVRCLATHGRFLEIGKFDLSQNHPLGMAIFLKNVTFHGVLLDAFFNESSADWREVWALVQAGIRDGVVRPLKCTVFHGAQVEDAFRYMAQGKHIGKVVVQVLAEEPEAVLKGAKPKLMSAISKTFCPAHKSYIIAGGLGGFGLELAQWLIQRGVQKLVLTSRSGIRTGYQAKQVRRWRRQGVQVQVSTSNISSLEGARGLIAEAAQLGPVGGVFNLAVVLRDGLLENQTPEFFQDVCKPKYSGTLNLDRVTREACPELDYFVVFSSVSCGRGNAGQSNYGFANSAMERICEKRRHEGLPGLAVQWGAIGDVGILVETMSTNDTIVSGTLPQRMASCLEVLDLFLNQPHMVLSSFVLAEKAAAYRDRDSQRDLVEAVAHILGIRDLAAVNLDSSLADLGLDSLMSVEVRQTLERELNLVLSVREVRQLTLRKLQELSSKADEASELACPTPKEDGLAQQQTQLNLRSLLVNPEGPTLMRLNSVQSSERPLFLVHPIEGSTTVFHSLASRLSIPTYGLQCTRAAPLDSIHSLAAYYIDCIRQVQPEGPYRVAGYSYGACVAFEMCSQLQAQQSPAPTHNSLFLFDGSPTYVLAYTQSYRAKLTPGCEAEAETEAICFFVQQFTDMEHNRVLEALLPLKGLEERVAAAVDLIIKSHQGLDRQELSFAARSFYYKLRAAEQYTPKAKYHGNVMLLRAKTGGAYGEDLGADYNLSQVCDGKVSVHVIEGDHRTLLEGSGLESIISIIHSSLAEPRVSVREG

For the molecule `Cn1ncc2c(=O)n(C[C@@H]3CCN(C(=O)C4CC4)C3)c(-c3ccc(-c4ccc5[nH]ccc5c4)cc3)nc21` [Example 1, 5-{[(3R)-1-(cyclopropylcarbonyl)-3-pyrrolidinyl]methyl}-6-[4-(1H-indol-5-yl)phenyl]-1-methyl-1,5-dihydro-4H-pyrazolo[3,4-d]pyrimidin-4-one], the IC50 worked out at 0.0079 µM. The molecule `Cc1nc2c(=O)n(C[C@@H]3CCN(C(=O)C4CC4)C3)c(-c3ccc(-c4ccc5[nH]ncc5c4)cc3)nc2o1` [Example 11, 6-{[(3R)-1-(cyclopropylcarbonyl)-3-pyrrolidinyl]methyl}-5-[4-(1H-indazol-5-yl)phenyl]-2-methyl[1,3]oxazolo[5,4-d]pyrimidin-7(6H)-one] registered an IC50 of 0.0251 µM. As for `COc1ccc(-c2ccc(-c3nc4ccccc4c(=O)n3C[C@@H]3CCN(C(=O)C4CC4)C3)cc2)c(Cl)c1` [Example 24, 2-[2-chloro-4(methoxy)-4-bipheny]-3-{[(3R)-1-(cyclopropylcarbonyl)-3-pyrrolidinyl]methyl}-4(3H)-quinazolinone], the IC50 was 0.2 µM. `Cc1cc(=O)n(C[C@@H]2CCN(C(=O)C3CC3)C2)c(-c2ccc(-c3ccc4[nH]ccc4c3)cc2)n1` [Example 26]: the IC50 worked out at 0.00316 µM. In turn, `Cc1cc(=O)n(-c2ccc(-c3ccc4cc[nH]c4c3)cc2)c(C[C@@H]2CCN(C(=O)C3CC3)C2)n1` [Example 47, 2-{[(3S)-1-(cyclopropylcarbonyl)-3-pyrrolidinyl]methyl}-1-[4-(1H-indol-6-yl)phenyl]-6-methyl-4(3H)-pyrimidinone] yielded an IC50 of 0.01 µM.

The molecule `Cc1cc(=O)nc(C[C@@H]2CCN(C(=O)C3CC3)C2)n1-c1ccc(-c2ccc3occc3c2)cc1` [Example 49, 1-[4-(1-benzofuran-5-yl)phenyl]-2-{[(3S)-1-(cyclopropylcarbonyl)-3-pyrrolidinyl]methyl}-6-methyl-4(1H)-pyrimidinone] showed a 50% inhibitory concentration (IC50) of 3.16 µM.

By IC50 is commonly meant the concentration needed to halve the response being measured. Higher therefore signals lower potency.

The record behind these values is patent US20130303551A1, “PYRIMIDINONE DERIVATIVES AS FATTY ACID SYNTHASE INHIBITORS” (priority 2011, published 2013).
